According to patent publication US20110230571A1, “DIAGNOSTIC AND THERAPEUTIC PROTOCOLS” (ALFRED HEALTH, priority 2007, published 2011):
Read-outs that look alike come from different tables or passages of the source.

Tests used:
Type in all cases: cell-based
[1] = tested on: HIV-1 from patient plasma on GHOSTX4R5 cells; conditions: for number of patients whose virus infected GHOSTX4R5 cells: of 5 patients
Procedure: Matched patient blood samples were collected from HIV-1 positive, viraemic individuals, in sodium heparin, ACD and EDTA blood tubes.
To prepare a viral isolate pellet, plasma was diluted 1 in 2 (to a final volume of 800 μL) and layered over a 20% v/v sucrose cushion. The plasma was centrifuged at 17,000×g for 2 hours at 4° C. The supernatant was aspirated and the viral pellet was resuspended in 50 μL media as follows: • Sodium heparin samples: • Resuspended in GHOST media. • ACD samples: • One sample resuspended in GHOST media. • One sample resuspended in GHOST media plus Heparin at 20 U/mL. • One sample resuspended in GHOST media plus EDTA* • EDTA samples: • One sample resuspended in GHOST media. • One sample resuspended in GHOST media plus Heparin at 20 U/mL. • One sample resuspended in GHOST media plus ACD*
*ACD and EDTA were obtained by filling collection tubes with 9 mL of GHOST media. This media was then used undiluted to resuspend the pellet.
All samples contained Polybrene at 2 μg/mL.
Samples were added to GHOSTX4R5 cells which had been seeded the night before in a 96-well flat-bottomed TC plate at 10,000 cells/well. The cells were subjected to Spinoculation—centrifugation at 1200×g for 2 hours at room temperature. The volume of media was increased to 150 μL with GHOSTX4R5 media and the cells were incubated for 5 days.
The cells were washed in PD, detached from the plate with Trypsin-EDTA, washed 2× in FACS wash and fixed with FACS Fix. The cells were then analyzed by flow cytometry for GFP expression as an indication of HIV-1 infection. Cells infected with HIV-1 lab strains 89.6, NL4-3 and AD8 were run concurrently as positive controls for infection. Uninfected cells were analyzed as a negative/background control.

[2] = tested on: HIV-1 from patient plasma on TZMbl cells; assay: Infection of TZMbl indicator cells with virus pelleted from patient plasma (Example 2); conditions: samples in DMEM-10 (n=9), plasma collected in the named anti-coagulant
Procedure: (§1) Blood is collected from HIV-1-infected individuals in sodium heparin, anti-coagulant citrate dextrose (ACD) a ethylenediamine tetraacetic acid (EDTA) and/or any other anti-coagulant blood tubes. The plasma isolated from each tube is stored at −80° C. until use.
To pellet the virus, plasma was diluted 1 in 2 (to a final volume of 800 μL) and layered over a 20% w/v sucrose cushion. The plasma was centrifuged at 17,000×g for 2 hours at 4° C. […]
Samples are also resuspended in DMEM-10 media and added to TZMbl cells. […] Upon integration of the host genome with the HIV-1 genome, these two genes are expressed and can be measured (NIH AIDS Research and Reference Reagent Program, Division of AIDS, NIAID, NIH (Derdeyn et al. Journal of Virology 74:8358-8367, 2000; Platt et al. Journal of Virology 72:2855-2864, 1998; Wei et al. Antimicrobial Agents and Chemotherapy 46:1896-1905, 2002). Following HIV infection of TZMbls, there is an increase in β-gal expression over the next 5 days. Infection is most simply measured by counting the number of cells that express β-gal (or are blue). The maximum number of blue cells that can be counted by this assay is 300 cells. […]
At day 5 post-infection, GHOST cells are washed in phosphate buffered saline (PBS), detached from the plate with Trypsin-EDTA, washed twice in FACS wash and fixed with FACS Fix. […] Uninfected cells are analyzed as a negative/background control.

[3] = tested on: HIV-1 from patient plasma on GHOSTX4R5 cells
Procedure: as §1
To pellet the virus, plasma was diluted 1 in 2 (to a final volume of 800 μL) and layered over a 20% w/v sucrose cushion. The plasma was centrifuged at 17,000×g for 2 hours at 4° C. The supernatant was aspirated and the viral pellet (viral isolate) was resuspended in 50 μL of GHOST media (Dulbecco's Modified Eagle's Medium (DMEM, Invitrogen, Auckland, NZ), 10% v/v Cosmic calf serum (Quantum Scientific, Milton, Qld), 1× Penicillin/Streptomycin/Glutamine (Invitrogen), 1 μg/mL Puromycin (Sigma, St. Louis, Mo.), 100 μg/mL Hygromycin (Sigma), 500 μg/mL G418 (AG Scientific, San Diego, Calif.)) or DMEM-10 (DMEM, 10% v/v Cosmic calf serum) in the presence and absence of Heparin (20 U/mL, David Bull Laboratories, Melbourne, Australia). All samples contain polybrene at 2 μg/mL. Samples resuspended in DMEM-10 contain 40 μg/mL DEAE-Dextran.
Samples were resuspended in GHOST media and added to GHOSTX4R5 cells which have been seeded 24 hours previously in a 96-well flat-bottomed plate at 10,000 cells/well. GHOSTX4R5 cells are an adherent cell line derived from human osteosarcoma (HOS cells). They are stably transfected with the HIV-2 LTR driving hGFP construct and express green fluorescent protein (GFP) when productively infected with HIV or SIV. The cells also stably express surface CD4, CCR5 and CXCR4 (Morner et al. Journal of Virology 73:2342-2349, 1999) (NIH AIDS Research and Reference Reagent Program, Division of AIDS, NIAID, NIH).
Both cell lines are infected at the same time with HIV-1 strains 89.6 (uses both CXCR4 and CCR5), NL4-3 (uses CXCR4 only) and AD8 (uses CCR5 only) as positive controls for infection. The cells are then subjected to spinoculation—centrifugation at 1200×g for 2 hours at room temperature. The volume of media is increased to 150 μL with media and the cells are incubated for 5 days. Samples are observed for the presence of clot formation at all stages.
At day 5 post-infection, GHOST cells are washed in phosphate buffered saline (PBS), detached from the plate with Trypsin-EDTA, washed twice in FACS wash and fixed with FACS Fix. The cells are then analyzed by flow cytometry for expression of GFP as an indication of HIV-1 infection. TZMbl cells are washed in PBS and fixed for 5 mins in fixative. Cells are washed once and 50 μL of β-gal substrate is added to each well. The cells are incubated at 37° C. for 2 hours. […] Under a light microscope, the number of blue-stained (HIV-1 infected) foci are counted. Uninfected cells are analyzed as a negative/background control.

[4] = Day 5 post-infection, named anti-coagulant combination
[5] = GHOSTX4R5 cells, samples in GHOST media (n=10), plasma collected in the named anti-coagulant

Molecule	mean number of GFP positive cells per 100,000 cells ([1]; 5 patients, blood collected in sodium heparin, compared with other anti-coagulant combinations)	mean number of infected cells ([1]; 5 patients, heparin added to samples collected in ACD or EDTA, versus ACD or EDTA alone)	number of patients whose virus infected GHOSTX4R5 cells [1, 4]	number of patients whose virus infected GHOSTX4R5 cells ([1]; viral isolates derived from ACD plasma to which heparin had been added)	patient samples with viral infection observed [2] [%]	patient samples with viral infection observed ([3]; GHOSTX4R5 cells (n=10), plasma collected in ACD, heparin added to the resuspended plasma pellet) [%]	patient samples with viral infection observed ([3]; GHOSTX4R5 cells (n=10), samples collected in EDTA to which heparin had been added) [%]	patient samples with viral infection observed [3, 5] [%]	mean number of infected cells ([1]; 5 patients, ACD or EDTA added to samples)
heparin	highest	slightly improved	3	5	33	50	40	40	–
O=C(O)CN(CCN(CC(=O)O)CC(=O)O)CC(=O)O [EDTA, ethylenediamine tetraacetic acid]	–	–	4	–	22	–	–	30	very low
